# Experimental data reported in BindingDB's records for patent US9284322 (Research Triangle Institute, 2016).
# Biological target: Isoform Alpha-4-2 of Neuronal acetylcholine receptor subunit alpha-4 (Alpha-4-2)/Neuronal acetylcholine receptor subunit beta-2 (Rat, UniProt P09483+P12390)
# Assay: Adult male rat cerebral cortices (Pelfreeze Biological, Rogers, Ark.) were homogenized in 39 volumes of ice-cold 50 mM Tris buffer (pH 7.4 at 4° C.) containing 120 mM NaCl, 5 mM KCl, 2 mM CaCl2, and 1 mM MgCl2 and sedimented at 37,000 g for 10 min at 4° C. The supernatant was discarded, the pellet resuspended in the original volume of buffer, and the wash procedure repeated twice more. After the last centrifugation, the pellet was resuspended in 1/10 its original homogenization volume and stored at −80° C. until needed. […] Total and nonspecific bindings were determined in the presence of vehicle and 300 μM (−)-ni
# Conditions: 25 °C
# Isoform Alpha-4-2 of Neuronal acetylcholine receptor subunit alpha-4 (Alpha-4-2)/Neuronal acetylcholine receptor subunit beta-2, sequence (P09483 as listed by the source): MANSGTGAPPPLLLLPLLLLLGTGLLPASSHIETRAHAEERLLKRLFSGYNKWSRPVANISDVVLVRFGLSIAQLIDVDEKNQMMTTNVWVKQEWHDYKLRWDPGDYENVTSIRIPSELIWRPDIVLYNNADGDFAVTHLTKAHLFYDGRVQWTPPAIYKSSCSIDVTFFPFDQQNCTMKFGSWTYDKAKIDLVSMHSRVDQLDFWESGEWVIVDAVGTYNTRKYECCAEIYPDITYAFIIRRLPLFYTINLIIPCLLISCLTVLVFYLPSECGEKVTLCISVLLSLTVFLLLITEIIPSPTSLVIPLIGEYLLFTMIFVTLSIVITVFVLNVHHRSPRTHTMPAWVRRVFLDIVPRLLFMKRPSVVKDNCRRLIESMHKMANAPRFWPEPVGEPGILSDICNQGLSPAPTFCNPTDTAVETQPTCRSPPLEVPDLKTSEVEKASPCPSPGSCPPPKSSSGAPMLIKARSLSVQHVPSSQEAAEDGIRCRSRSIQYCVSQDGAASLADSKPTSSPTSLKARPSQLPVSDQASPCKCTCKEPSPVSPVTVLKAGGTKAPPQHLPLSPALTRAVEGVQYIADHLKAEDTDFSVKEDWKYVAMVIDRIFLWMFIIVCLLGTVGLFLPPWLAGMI
# Isoform Alpha-4-2 of Neuronal acetylcholine receptor subunit alpha-4 (Alpha-4-2)/Neuronal acetylcholine receptor subunit beta-2, sequence (P12390 whole entry, canonical isoform): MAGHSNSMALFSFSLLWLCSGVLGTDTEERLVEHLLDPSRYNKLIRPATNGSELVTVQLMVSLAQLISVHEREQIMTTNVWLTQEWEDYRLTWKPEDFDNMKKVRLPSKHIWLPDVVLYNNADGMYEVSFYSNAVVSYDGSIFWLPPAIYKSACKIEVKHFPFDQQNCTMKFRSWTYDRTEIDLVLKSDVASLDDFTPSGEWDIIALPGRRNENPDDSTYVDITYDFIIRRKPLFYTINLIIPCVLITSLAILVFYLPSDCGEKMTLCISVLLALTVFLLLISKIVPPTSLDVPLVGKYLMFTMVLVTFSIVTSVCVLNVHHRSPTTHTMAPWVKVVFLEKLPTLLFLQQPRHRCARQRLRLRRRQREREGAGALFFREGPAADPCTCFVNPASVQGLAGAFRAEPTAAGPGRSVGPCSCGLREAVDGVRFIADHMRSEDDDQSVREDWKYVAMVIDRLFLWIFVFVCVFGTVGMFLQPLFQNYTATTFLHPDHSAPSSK
row,SMILES,Ki [nM]
1,"Clc1ncc(C2CC3CCC2N3)cc1-c1cncnc1 (stereo not drawn) [US9284322, Table 7, Compound 3]",0.32
2,"Fc1ncc(C2CC3CCC2N3)cc1-c1cncnc1 (stereo not drawn) [US9284322, Table 7, Compound 2]",0.84
3,"c1ncc(-c2cncc(C3CC4CCC3N4)c2)cn1 (stereo not drawn) [US9284322, Table 7, Compound 1]",0.12
